US10000471B2, “Pyrazole P38 map kinase inhibitors” (Respivert Limited, priority 2010, dated 2018)
pEC50, pIC50: −log10 of the molar value.

Legend:
[1] = target: T1, p38 MAPKα isoform (MAPK14) (Homo sapiens, UniProt Q16539); experiment: Enzyme inhibition assay (FRET, Z-LYTE), p38 MAPKα via MAPKAP-K2 activation; format: biochemical; settings: read-out: Enzyme Inhibition IC50 p38α
T1 construct: purchased Invitrogen
How it was run: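 Recombinant p38 MAPKα was preincubated with compound for 2 h at RT. Its activity was measured indirectly through activation/phosphorylation of downstream MAPKAP-K2, with a Z-LYTE FRET peptide read-out (coumarin/fluorescein ratio) after a 1 h development step. IC50 came from concentration-response curves of percent inhibition versus an uninhibited control.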

p38 MAPKγ (MAPK12) = target: T2, p38 MAPKγ (MAPK12) (Homo sapiens, UniProt P53778); experiment: Enzyme inhibition assay (FRET, Z-LYTE), p38 MAPKγ; format: biochemical; settings: read-out: Enzyme Inhibition IC50 p38γ
T2 construct: purchased Invitrogen
T2 sequence (P53778 1-367): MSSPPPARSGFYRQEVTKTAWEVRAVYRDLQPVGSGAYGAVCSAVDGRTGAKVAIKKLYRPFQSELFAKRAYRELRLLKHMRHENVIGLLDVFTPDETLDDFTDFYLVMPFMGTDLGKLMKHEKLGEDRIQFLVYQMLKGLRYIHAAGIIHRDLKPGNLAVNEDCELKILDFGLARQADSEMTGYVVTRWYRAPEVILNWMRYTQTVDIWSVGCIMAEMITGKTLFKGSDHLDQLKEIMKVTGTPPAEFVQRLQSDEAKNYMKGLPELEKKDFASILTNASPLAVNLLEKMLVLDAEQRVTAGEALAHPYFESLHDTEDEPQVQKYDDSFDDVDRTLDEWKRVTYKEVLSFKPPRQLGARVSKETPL
How it was run: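 Recombinant phosphorylated p38 MAPKγ preincubated 2 h at RT with compound in HEPES buffer, then 2 μM FRET peptide and 100 μM ATP added for 1 h; protease development 1 h. Coumarin/fluorescein emission ratio gave phosphorylation; IC50 from concentration-response versus uninhibited control.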

[2] = test system: TNFα release in THP-1 cells; experiment: LPS-induced TNFα release in THP-1 cells; format: cell-based, human; settings: Homo sapiens
How it was run: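 Human monocytic THP-1 cells stimulated with 3 μg/mL E. coli LPS for 4 hr; supernatant TNFα measured by sandwich ELISA. Inhibition at each concentration versus vehicle control, IC50 from concentration-response curve.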

[3] = test system: TNFα release in d-U937 cells; experiment: LPS-induced TNFα release in d-U937 cells; format: cell-based, human; settings: Homo sapiens, dU937, relative to 10 μg/mL BIRB796, read-out: LPS/TNFα REC50 d-U937
How it was run: (§1)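 PMA-differentiated (100 ng/ml, 48–72 hr) U937 macrophage-type cells pre-incubated 2 hr with compound, then stimulated 4 hr with 0.1 μg/mL E. coli O111:B4 LPS; supernatant TNFα and IL-8 measured by sandwich ELISA. TNFα inhibition expressed relative to 10 μg/mL BIRB796, giving REC50; IL-8 inhibition versus vehicle, giving IC50.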

[4] = test system: IL-8 release in d-U937 cells; experiment: LPS-induced IL-8 release in d-U937 cells; format: cell-based, human; settings: Homo sapiens, dU937
How it was run: as §1

[5] = test system: ICAM-1 induction in BEAS2B cells; experiment: Poly I:C-induced ICAM-1 induction in BEAS2B cells; format: cell-based, human; settings: Homo sapiens, BEAS-2B, read-out: PolyIC/ICAM1 IC50 BEAS2B
How it was run: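 Human bronchial epithelial BEAS2B cells were pre-incubated with compound for 2 hr, then transfected with 1 μg/mL poly I:C. After 18 hr, surface ICAM-1 was measured by cell-based ELISA (OD450-655) and normalized to crystal violet cell counts (OD595). IC50 came from inhibition versus vehicle across the concentration-response curve.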

[6] = test system: Differentiated U937 cells; experiment: Cell viability MTT assay; format: cell-based, human; settings: negative = apparent increase in viability; for MTT Assay (Viability) 4 h d-U937, percentage loss of cell viability: 4 hr in 5% FCS; for MTT Assay (Viability) 24 h d-U937, percentage loss of cell viability: 24 h in 10% FCS
How it was run: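 Differentiated U937 cells pre-incubated with compound either 4 hr in 5% FCS or 24 h in 10% FCS, then 1 hr MTT. Formazan dissolved in DMSO, absorbance at 550 nm. Percentage viability loss relative to 0.5% DMSO vehicle; apparent increases appear as negative percentages.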

T1 sequence (Q16539 whole entry, canonical isoform): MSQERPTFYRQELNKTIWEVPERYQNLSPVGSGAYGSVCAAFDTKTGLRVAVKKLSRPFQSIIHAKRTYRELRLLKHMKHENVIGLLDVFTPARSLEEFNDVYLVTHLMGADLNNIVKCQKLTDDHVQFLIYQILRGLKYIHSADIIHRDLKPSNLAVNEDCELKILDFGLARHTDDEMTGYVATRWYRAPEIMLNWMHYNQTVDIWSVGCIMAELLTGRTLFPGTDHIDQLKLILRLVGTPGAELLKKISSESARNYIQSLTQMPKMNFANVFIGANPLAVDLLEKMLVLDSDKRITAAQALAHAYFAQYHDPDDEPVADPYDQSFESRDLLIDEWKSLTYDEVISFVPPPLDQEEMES

Structure (SMILES) | pIC50 [1] | pIC50 (p38 MAPKγ (MAPK12)) | pIC50 [2] | pEC50 [3] | pIC50 [4] | pIC50 [5] | MTT Assay (Viability) 4 h d-U937, percentage loss of cell viability [6] [%] | MTT Assay (Viability) 24 h d-U937, percentage loss of cell viability [6] [%]
COCC(=O)Nc1cc(Oc2ccc(NC(=O)Nc3cc(C(C)(C)C)nn3-c3ccc(C)cc3)c(Cl)c2)ccn1 [Example 27, N-(4-(4-(3-(3-tert-butyl-1-p-tolyl-1H-pyrazol-5-yl)ureido)-3-chlorophenoxy)pyridin-2-yl)-2-methoxyacetamide] | 7.73 | 6.96 | 9.22 | 9.30 | 8.48 | 8.20 | 7.2 | 54.9
CNC(=O)Nc1cc(Oc2ccc(NC(=O)Nc3cc(C(C)(C)C)nn3-c3ccc(OC)cc3)c3ncccc23)ccn1 [Example 57, 1-(3-tert-butyl-1-(4-methoxyphenyl)-1H-pyrazol-5-yl)-3-(5-(2-(3-methylureido)pyridin-4-yloxy)quinolin-8-yl)urea] | 7.33 | 6.78 | 7.83 | 8.64 | 8.52 | 6.85 | −23.6 | −56.2
COCC(=O)Nc1cc(Oc2ccc(NC(=O)Nc3cc(C(C)(C)C)nn3-c3ccc(CO)cc3)c(Cl)c2Cl)ncn1 [Example 93, N-(6-(4-(3-(3-tert-butyl-1-(4-hydroxymethylphenyl)-1H-pyrazol-5-yl)ureido)-2,3-dichlorophenoxy)pyrimidin-4-yl)-2-methoxyacetamide] | 8.05 | 6.80 | 9.10 | 8.89 | 7.72 | 9.30 | −1.4 | 91.5
COc1ccc(-n2nc(C(C)(C)C)cc2NC(=O)Nc2ccc(Oc3ccnc(NC(=O)NC4CC4)c3)c(Cl)c2Cl)cc1 [Example 65, 1-(4-(4-(3-(3-tert-butyl-1-(4-methoxyphenyl)-1H-pyrazol-5-yl)ureido)-2,3-dichlorophenoxy)pyridin-2-yl)-3-cyclopropylurea] | 7.42 | 6.91 | 8.57 | 8.70 | 8.42 | 7.76 | −4.7 | 20.2
CNC(=O)Nc1cc(Oc2ccc(NC(=O)Nc3cc(C(C)(C)C)nn3-c3ccc(CO)c(Cl)c3)c(Cl)c2Cl)ccn1 [Example 54, 1-(3-tert-butyl-1-(3-chloro-4-hydroxymethylphenyl)-1H-pyrazol-5-yl)-3-(2,3-dichloro-4-(2-(3-methylureido)pyridin-4-yloxy)phenyl)urea] | 7.06 | 7.28 | 8.66 | 9.52 | 8.49 | 8.60 | −34.9 | 71.2
CNC(=O)Nc1cc(Oc2ccc(NC(=O)Nc3cc(C(C)(C)C)nn3-c3ccc(CO)cc3)c(Cl)c2Cl)ncn1 [Example 99, 1-(3-tert-butyl-1-(4-hydroxymethylphenyl)-1H-pyrazol-5-yl)-3-(2,3-dichloro-4-(6-(3-methylureido)pyrimidin-4-yloxy)phenyl)urea] | 7.62 | 6.84 | 8.96 | 9.00 | 8.16 | 8.49 | 3.7 | 92.4
CN(C)CCCC(=O)Nc1cc(Oc2ccc(NC(=O)Nc3cc(C(C)(C)C)nn3-c3ccc(CO)cc3)c(Cl)c2Cl)ncn1 [Example 22] | 8.12 | 7.69 | 8.96 | 8.82 | 7.47 | 8.31 | −20.9 | 85.2
CNC(=O)Nc1cc(Oc2ccc(NC(=O)Nc3cc(C(C)(C)C)nn3-c3ccc(C(=O)O)cc3)c(Cl)c2Cl)ccn1 [Example 60, 4-(3-tert-butyl-5-(3-(2,3-dichloro-4-(2-(3-methylureido)pyridin-4-yloxy)phenyl)ureido)-1H-pyrazol-1-yl)benzoic acid] | 7.99 | 7.89 | 7.64 | 8.04 | 7.63 | < 6.79 | −15.4 | −52.4
CNC(=O)Nc1cc(Oc2ccc(NC(=O)Nc3cc(C(C)(C)C)nn3-c3ccc(C)cc3)c(Cl)c2Cl)ncn1 [Example 95, 1-(3-tert-butyl-1-p-tolyl-1H-pyrazol-5-yl)-3-(2,3-dichloro-4-(6-(3-methylureido)pyrimidin-4-yloxy)phenyl)urea] | 7.52 | 6.76 | 8.80 | 9.70 | 9.70 | 8.96 | −38.0 | 22.5
COCC(=O)Nc1cc(Oc2ccc(NC(=O)Nc3cc(C(C)(C)C)nn3-c3ccc(C)cc3)cc2S(C)(=O)=O)ccn1 [Example 31, N-(4-(4-(3-(3-tert-butyl-1-p-tolyl-1H-pyrazol-5-yl)ureido)-2-methylsulfonylphenoxy)pyridin-2-yl)-2-methoxyacetamide] | 6.81 | 6.54 | 6.84 | 6.76 | 6.58 | 6.97 | 1.1 | 49.3
CNC(=O)Nc1cc(Oc2ccc(NC(=O)Nc3cc(C4(C)CCCCC4)nn3-c3ccc(C)cc3)c(Cl)c2Cl)ccn1 [Example 73, 1-(3-(1-methylcyclohexyl)-1-p-tolyl-1H-pyrazol-5-yl)-3-(2,3-dichloro-4-(2-(3-methylureido)pyridin-4-yloxy)phenyl)urea] | 6.82 | 6.62 | 7.89 | 8.77 | 8.72 | 5.89 | −27.3 | 12.3
COc1ccc(-n2nc(C(C)(C)C)cc2NC(=O)Nc2ccc(Oc3ccnc(NC(=O)N4CCCC4(C)C)c3)c(Cl)c2Cl)cc1 [Example 86, N-(4-(4-(3-(3-tert-butyl-1-(4-methoxyphenyl)-1H-pyrazol-5-yl)ureido)-2,3-dichlorophenoxy)pyridin-2-yl)-2,2-dimethylpyrrolidine-1-carboxamide] | 6.86 | 6.36 | 9.10 | 8.57 | 8.59 | 8.10 | −5.1 | 26.7
CC(C)(C)c1cc(NC(=O)Nc2ccc(Oc3ccnc(NC(=O)CN4CCOCC4)c3)c(Cl)c2Cl)n(-c2ccc(CO)cc2)n1 [Example 48, N-(4-(4-(3-(3-tert-butyl-1-(4-hydroxymethylphenyl)-1H-pyrazol-5-yl)ureido)-2,3-dichlorophenoxy)pyridin-2-yl)-2-morpholino-acetamide] | 8.20 | 7.65 | 9.40 | 8.96 | 8.29 | 8.66 | 12.5 | 84.1
